Experimental data: paper PMC6017257, “Towards a Novel Class of Multitarget-Directed Ligands: Dual P2X7–NMDA Receptor Antagonists” (Molecules : A Journal of Synthetic Chemistry and Natural …, 2018)
Where two headings read alike, the source gives them in different places.

Assays:
NMDAR = details: cited from earlier work
hP2X7 [1] = system: hP2X7; design: method as in PMID 22400713; details: read-out: P2X7R antagonist IC50; cited from earlier work
human P2X7 receptor = target: T1, human P2X7 receptor (Homo sapiens, UniProt Q99572); experiment: BzATP-induced ethidium bromide uptake (dye uptake) in hP2X7-expressing HEK293 cells; format: cell-based; details: for inhibition at 1 µM / inhibition at 10 µM: P2X7, relative to maximum ethidium bromide uptake stimulated by BzATP 6 µM; for inhibition at 1 µM: at 1 μM (right value); for inhibition at 10 µM: at 10 µM (left value); for IC50: ethidium bromide accumulation stimulated by BzATP 6 µM, hP2X7-expressing HEK293 cells, from concentration-response curves
T1 construct: expressed in transfected cells; host or cells: HEK293
T1 sequence (Q99572 1-595): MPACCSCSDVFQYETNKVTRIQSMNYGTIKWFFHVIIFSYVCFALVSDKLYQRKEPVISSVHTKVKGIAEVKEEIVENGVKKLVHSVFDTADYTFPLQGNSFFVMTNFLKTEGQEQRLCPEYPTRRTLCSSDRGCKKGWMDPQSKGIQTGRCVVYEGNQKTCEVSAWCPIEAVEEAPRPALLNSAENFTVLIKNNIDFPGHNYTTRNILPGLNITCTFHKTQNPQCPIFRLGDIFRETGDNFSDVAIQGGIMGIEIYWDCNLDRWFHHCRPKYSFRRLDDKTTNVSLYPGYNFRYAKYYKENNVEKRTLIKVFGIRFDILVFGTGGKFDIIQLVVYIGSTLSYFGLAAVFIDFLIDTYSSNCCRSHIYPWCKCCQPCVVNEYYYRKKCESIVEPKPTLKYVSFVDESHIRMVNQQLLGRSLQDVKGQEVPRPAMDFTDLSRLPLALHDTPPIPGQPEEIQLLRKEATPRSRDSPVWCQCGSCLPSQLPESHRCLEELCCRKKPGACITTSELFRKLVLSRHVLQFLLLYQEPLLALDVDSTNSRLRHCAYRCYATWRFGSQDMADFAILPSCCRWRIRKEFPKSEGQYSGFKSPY
Procedure: All new compounds were evaluated for their antagonistic effects on 2’(3’)-O-(4-benzoylbenzoyl)-ATP (BzATP)-induced ethidium bromide uptake in human embryonic kidney 293 (HEK 293) cells, stably expressing the human P2X7 receptor, using P2X7 receptor antagonist AZD9056—AstraZeneca’s clinical drug candidate [46]—as a positive control. […] However, taking into account that we wanted to design a compound endowed with low micromolar inhibitory potencies against both the P2X7 and NMDA receptors, compound 9g suited our purpose.
HEK293 cells stably expressing the P2X7 receptor were maintained in Dulbecco's modified Eagle's medium (DMEM) supplemented with 10% fetal bovine serum (FBS), 2 mM L-glutamine, and antibiotics (50 U/mL penicillin and […] streptomycin) in a humidified 5% CO2 atmosphere at 37 °C. We used Lipofectamine as a transfection reagent with a pcDNA3.1 vector-based plasmid harbouring hP2X7R (Invitrogen, Waltham, MA, USA). After diluting to 2.5 × 10^6 cells/mL, a buffer composed of 10 mM HEPES, 5 mM N-methyl-D-glutamine, 5.6 mM KCl, 10 mM D-glucose, and 0.5 mM CaCl2 (pH 7.4), supplemented with either 280 mM sucrose or 140 mM NaCl and an 80 μL aliquot, was added to each well of 96-well culture plates. The test compounds and 2(3’)-O-(4-benzoylbenzoyl)-ATP (BzATP) were then added, and the cells were incubated for 2 h in a humidified 5% CO2 atmosphere at 37 °C. After incubation, a Bio-Tek FL600 fluorescence plate reader (Winooski, VT, USA) was used to measure the […] at an excitation wavelength of 530 nm and an emission wavelength of 590 nm. The inhibition (percent) of ethidium ion uptake was expressed as a relative value of the maximum accumulation when stimulated with BzATP only. To calculate IC50 values, we calculated a series of dose–response data using nonlinear regression analysis (i.e., percentage accumulation of ethidium bromide vs compound concentration). The concentration of ethidium bromide was 0.1 mM.

NMDA receptors = experiment: Inhibition of NMDA-evoked increase in intracellular calcium in rat cultured cerebellar granule neurons; format: cell-based; details: for % inhibition: relative to maximum intracellular calcium stimulated by 100 µM NMDA with 10 µM glycine
Procedure: Additionally, to evaluate whether the synthesized compounds were able to antagonize the NMDA receptors, we measured their effects on the increase in intracellular calcium evoked by NMDA (100 μM, in the presence of 10 μM of glycine) on rat-cultured cerebellar granule neurons.
The functional assay of antagonist activity at the NMDA receptors was performed using primary cultures of rat cerebellar granule neurons that were prepared according to established protocols. Cells were grown on 10 mm poly-L-lysine coated glass cover slips, and used for the experiments after 6–9 days in vitro. Cells were loaded with 6 µM Fura-2 AM (ThermoFisher Scientific-Molecular Probes) for 30 min. Afterwards, the coverslip was mounted on a quartz cuvette containing a Locke-Hepes buffer using a special holder. Measurements were performed using a PerkinElmer LS-55 fluorescence spectrometer (Waltham, MA, USA) equipped with a fast-filter accessory, under mild agitation and at 37 °C. Analysis of each sample was recorded in real time for 1600 s. After stimulation with NMDA (100 µM, in the presence of 10 µM glycine), increasing cumulative concentrations of the compound to be tested were added. The percentages of inhibition at every tested concentration were analyzed using a non-linear regression curve fitting analysis by using the software GraphPad Prism 5.0 (GraphPad Software Inc., La Jolla, CA, USA).
Table S1. NMDA antagonist activity in rat cerebellar granule cells. […]
aPercentage inhibition values at 100 µM (left) and 300 μM (right) were expressed as percentages, relative to maximum intracellular calcium concentration stimulated by 100 µM NMDA in the presence of 10 µM of glycine. All experiments were repeated at least three times. bIC50 value was obtained from concentration response curves.

hP2X7 [2] = system: hP2X7; design: method as in PMID 18438986; details: read-out: P2X7R antagonist activity IC50; cited from earlier work

In the case of `CC12CC3CC(C)(C1)CC(N)(C3)C2` [memantine], the “fold more potent as an NMDA inhibitor than amantadine” value (NMDAR) is listed as 60 fold.
In the case of `CC12CC3CC(C)(C1)CC(C(=O)NNc1c(Cl)cncc1Cl)(C3)C2` [Compound 3], the IC50 (hP2X7 [1]) is given as 13 ± 1 nM.
`NC12CC3CC(C1)CC(C(=O)NNc1c(Cl)cncc1Cl)(C3)C2` [Compound 9e, 3-Amino-N'-(3,5-dichloropyridin-4-yl)adamantane-1-carbohydrazide] gave an inhibition at 1 µM (human P2X7 receptor) of 27%, an inhibition at 10 µM (human P2X7 receptor) of 53% and a melting point of 191 to 192 °C. For the same molecule, the “% inhibition” value (NMDA receptors; at 100 µM (left value)) was 6% and the “% inhibition” value (NMDA receptors; at 300 μM (right value)) was 16%.
For `NC12CC3CC(C1)CC(C(=O)NNc1ccc(C(F)(F)F)cc1Cl)(C3)C2` [Compound 9d, 3-Amino-N'-[2-chloro-4-(trifluoromethyl)phenyl]adamantane-1-carbohydrazide], the inhibition at 1 µM (human P2X7 receptor) was 21%, the inhibition at 10 µM (human P2X7 receptor) was 24% and the melting point was 185 to 186 °C. The “% inhibition” value (NMDA receptors; at 100 µM (left value)) was 20%.
Work on `NC12CC3CC(C1)CC(C(=O)NNc1cccc(Cl)c1F)(C3)C2` [Compound 9f, 3-Amino-N'-(3-chloro-2-fluorophenyl)adamantane-1-carbohydrazide] yielded an inhibition at 1 µM (human P2X7 receptor) of 17%, an inhibition at 10 µM (human P2X7 receptor) of 15% and a melting point of 200 to 202 °C. The “% inhibition” value (NMDA receptors; at 100 µM (left value)) was 11% and the “% inhibition” value (NMDA receptors; at 300 μM (right value)) was 18%.
In the case of `NC12CC3CC(CC(C3)C1)C2` [amantadine], the IC50 (NMDAR; amantadine, read-out: NMDAR antagonist IC50) is listed as 92 ± 29 µM.
Molecule `NC12CC3CC(C1)CC(C(=O)NNc1cccc(Cl)c1Cl)(C3)C2` [Compound 9c, 3-Amino-N'-(2,3-dichlorophenyl)adamantane-1-carbohydrazide] has an inhibition at 1 µM (human P2X7 receptor) of 17%, an inhibition at 10 µM (human P2X7 receptor) of 42% and a melting point of 215 to 219 °C. The “% inhibition” value (NMDA receptors; at 100 µM (left value)) was 23% and the “% inhibition” value (NMDA receptors; at 300 μM (right value)) was 30%.
`O=C(NCC12CC3CC(CC(C3)C1)C2)c1cc(CCCNCCCO)ccc1Cl` [AZD9056, reference compound] gave an IC50 (human P2X7 receptor) of 0.0041 ± 0.0007 µM.
With `CC12CC3(C)CC(N)(C1)CC(C(=O)NNc1ccccc1Cl)(C2)C3` [Compound 15b, 3-Amino-N'-(2-chlorophenyl)-5,7-dimethyladamantane-1-carbohydrazide] the IC50 (human P2X7 receptor) was 16.1 ± 1.6 µM, the melting point was 280 to 282 °C and the “% inhibition” value (NMDA receptors; at 100 µM (left value)) was 7%. For the same molecule, the “% inhibition” value (NMDA receptors; at 300 μM (right value)) was 8% and the “NMDA receptor inhibition (in words)” value (NMDA receptors; rat cerebellar granule neurons) was “unable to significantly inhibit the NMDA receptor even at millimolar concentrations”.
For `CC12CC3(C)CC(N)(C1)CC(C(=O)NNc1c(Cl)cncc1Cl)(C2)C3` [Compound 15a, 3-Amino-N'-(3,5-dichloropyridin-4-yl)-5,7-dimethyladamantane-1-carbohydrazide], the IC50 (human P2X7 receptor) was 9.9 ± 0.7 µM, the melting point was 300 to 302 °C and the “% inhibition” value (NMDA receptors; at 100 µM (left value)) was 20%. The “% inhibition” value (NMDA receptors; at 300 μM (right value)) was 31% and the “NMDA receptor inhibition (in words)” value (NMDA receptors; rat cerebellar granule neurons) was “unable to significantly inhibit the NMDA receptor even at millimolar concentrations”.
For `O=C(NNc1ccccc1Cl)C12CC3CC(CC(O)(C3)C1)C2` [Compound 1b], the IC50 (hP2X7 [2]) is listed as 275 ± 50 nM.
In the case of `NC12CC3CC(C1)CC(C(=O)NCc1ccccc1Cl)(C3)C2` [Compound 2, 3-Amino-N-(2-chlorobenzyl)adamantane-1-carboxamide], the melting point is reported as 186 to 189 °C, the “% inhibition” value (NMDA receptors; at 100 µM (left value)) is reported as 18% and the “% inhibition” value (NMDA receptors; at 300 μM (right value)) is reported as 30%.
`NC12CC3CC(C1)CC(C(=O)NNc1c(Cl)cccc1Cl)(C3)C2` [Compound 9b, 3-Amino-N'-(2,6-dichlorophenyl)adamantane-1-carbohydrazide] showed an inhibition at 1 µM (human P2X7 receptor) of 16%, an inhibition at 10 µM (human P2X7 receptor) of 23% and a melting point of 153 to 156 °C. The “% inhibition” value (NMDA receptors; at 100 µM (left value)) was 17% and the “% inhibition” value (NMDA receptors; at 300 μM (right value)) was 38%.
In the case of `NC12CC3CC(C1)CC(C(=O)NNc1ccccc1C(F)(F)F)(C3)C2` [Compound 9a, 3-Amino-N'-[2-(trifluoromethyl)phenyl]adamantane-1-carbohydrazide], the inhibition at 1 µM (human P2X7 receptor) is reported as 37%, the inhibition at 10 µM (human P2X7 receptor) is reported as 48% and the melting point is reported as 213 to 216 °C. For the same molecule, the “% inhibition” value (NMDA receptors; at 100 µM (left value)) was 5% and the “% inhibition” value (NMDA receptors; at 300 μM (right value)) was 14%.
For `O=C(NNc1ccccc1Cl)C12CC3CC(CC(C3)C1)C2` [Compound 1a], the IC50 (hP2X7 [2]) is listed as 11.6 ± 2 nM.
`NC12CC3CC(C1)CC(C(=O)NNc1ccccc1Cl)(C3)C2` [Compound 9g, 3-Amino-N'-(2-chlorophenyl)adamantane-1-carbohydrazide] gave an IC50 (human P2X7 receptor) of 6 ± 0.6 µM, a melting point of 220 to 222 °C and an IC50 (NMDA receptors; NMDA 100 μM with 10 μM glycine, rat cerebellar granule neurons, read-out: IC50 (NMDA receptor)) of 468 ± 23 µM. For the same molecule, the “NMDA receptor inhibition (in words)” value (NMDA receptors; rat cerebellar granule neurons) was “some activity as an NMDA receptor antagonist”.
